Measured values reported in patent US20260116920A1, “HUMAN TRANSFERRIN RECEPTOR BINDING PEPTIDE” (PEPTIDREAM INC., priority 2021, published 2026).
Values joined by “and” are separate entries in the source; they are usually repeats but may differ in a detail not shown here. Identical values can stand only once. Like-named read-outs stand apart in the source and are kept apart here. Positions of bridges follow the written chain, without caps; N, C: chain ends. Non-standard residues stand in square brackets, D forms with d. Residues, ends and D or L forms follow the SMILES beside them. Phe(3-COOH) = N[C@@H](Cc1cccc(C(=O)O)c1)C(=O)O; NMePhe(3-Cl) = CN[C@@H](Cc1cccc(Cl)c1)C(=O)O; 3Pal(6-NH2) = Nc1ccc(C[C@H](N)C(=O)O)cn1; NMeY = CN[C@@H](Cc1ccc(O)cc1)C(=O)O; PEG4 = NCCOCCOCCOCCOCCC(=O)O

Target: T1, human transferrin receptor (hTfR) (Homo sapiens, UniProt P02786)
T1 construct: made in house
T1 sequence (P02786 89-760 limits assumed): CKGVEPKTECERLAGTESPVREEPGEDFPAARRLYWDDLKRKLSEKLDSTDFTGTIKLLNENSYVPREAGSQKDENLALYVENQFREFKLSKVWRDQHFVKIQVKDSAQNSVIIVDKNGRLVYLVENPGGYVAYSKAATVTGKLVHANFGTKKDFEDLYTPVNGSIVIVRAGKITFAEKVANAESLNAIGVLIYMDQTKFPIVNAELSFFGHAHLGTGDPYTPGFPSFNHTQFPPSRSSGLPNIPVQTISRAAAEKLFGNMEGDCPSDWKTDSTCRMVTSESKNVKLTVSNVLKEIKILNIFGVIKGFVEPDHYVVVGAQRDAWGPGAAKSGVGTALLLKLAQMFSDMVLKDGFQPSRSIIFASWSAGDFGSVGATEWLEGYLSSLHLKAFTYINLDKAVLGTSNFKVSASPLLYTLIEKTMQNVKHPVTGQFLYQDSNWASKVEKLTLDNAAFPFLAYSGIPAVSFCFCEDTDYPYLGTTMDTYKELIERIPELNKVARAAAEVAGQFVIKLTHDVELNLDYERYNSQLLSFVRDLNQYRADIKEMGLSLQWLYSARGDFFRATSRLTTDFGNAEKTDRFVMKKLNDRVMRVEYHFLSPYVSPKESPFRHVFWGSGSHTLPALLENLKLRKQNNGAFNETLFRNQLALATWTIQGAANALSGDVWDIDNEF
Assay: Evaluation of molecular interaction between transferrin receptor (hTfR) and peptide using surface plasmon resonance (SPR)
Assay type: binding
Method in brief: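 Single-cycle SPR kinetics, KD by least-squares sensorgram fitting, with peptide series of 100, 50, 25, 10 and 5 nM. Running buffer: 10 mM HEPES pH 8.0, 150 mM NaCl, 0.05% Tween 20, 0.1% BSA, 1.0% DMSO. Surface: hTfR dimer covalently coupled (EDC/NHS) onto Ni-NTA chip.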

[1] = surface plasmon resonance, binding to hTfR, KD class symbol, read-out: SPR (KD value)
[2] = KD class for binding to hTfR by SPR, peptide with the linker shown in the same line, 'low signal indicates no activity', read-out: SPR

| SMILES | Kd [1] [nM] | other results |
| --- | --- | --- |
| CC[C@H](C)[C@@H]1NC(=O)[C@H](Cc2ccc(OCC(=O)O)cc2)NC(=O)[C@H](Cc2ccc(N)nc2)NC(=O)[C@H](CC(N)=O)NC(=O)[C@H](Cc2c[nH]c3ccccc23)NC(=O)[C@H](C(C)C)NC(=O)[C@H](Cc2cccc(Cl)c2)N(C)C(=O)[C@H](C(C)C)NC(=O)[C@H](C)NC(=O)CSC[C@@H](C(=O)NCCOCCOCCOCCOCCC(N)=O)NC(=O)[C@H](Cc2ccc(O)cc2)N(C)C(=O)[C@H](Cc2ccncc2)NC(=O)[C@H](CCCNC(=N)N)NC(=O)[C@H](CCCNC(=N)N)NC(=O)[C@H]([C@@H](C)CC)NC1=O [compound 92] | 1 to 100 |  |
| CC[C@H](C)[C@@H]1NC(=O)[C@H](Cc2ccc(O)cc2)NC(=O)[C@H](Cc2ccc(O)cc2)NC(=O)[C@H](CC(N)=O)NC(=O)[C@H](Cc2c[nH]c3ccccc23)NC(=O)[C@H](C(C)C)NC(=O)[C@H](Cc2ccccc2)N(C)C(=O)[C@H](C(C)C)NC(=O)[C@H](C)NC(=O)CSC[C@@H](C(=O)NCC(=O)N[C@@H](CCCCN=[N+]=[N-])C(N)=O)NC(=O)[C@H](Cc2ccc(O)cc2)N(C)C(=O)[C@H](Cc2ccc(O)cc2)NC(=O)[C@H](CCCNC(=N)N)NC(=O)[C@H](CCCNC(=N)N)NC(=O)[C@H]([C@@H](C)CC)NC1=O [compound 13] | < 1 | Kd (SPR, immobilized recombinant hTfR, single-cycle kinetics, substitution variants of 894_3151, read-out: KD): 1.3 nM; KD (Each Peptide)/KD (894_3151) (ratio of KD to KD of 894_3151 (SEQ ID NO: 13)): 1.0 and 1.4 |
| CC[C@H](C)[C@@H]1NC(=O)[C@H](Cc2ccc(OCC(=O)O)cc2)NC(=O)[C@H](Cc2ccc(O)cc2)NC(=O)[C@H](CC(N)=O)NC(=O)[C@H](Cc2cn(CC(=O)O)c3ccccc23)NC(=O)[C@H](C(C)C)NC(=O)[C@H](Cc2cccc(Cl)c2)N(C)C(=O)[C@H](C(C)C)NC(=O)[C@H](C)NC(=O)CSC[C@@H](C(=O)NCC(=O)N[C@@H](CCCCN=[N+]=[N-])C(N)=O)NC(=O)[C@H](Cc2ccc(O)cc2)N(C)C(=O)[C@H](Cc2ccccc2)NC(=O)[C@H](CCC(=O)NCCOCCOCCOCCOCCOCCOCCOCCOC)NC(=O)[C@H](CCCNC(=N)N)NC(=O)[C@H]([C@@H](C)CC)NC1=O [894_3173] |  | Kd [2]: 1 to 100 nM |
| CC[C@H](C)[C@@H]1NC(=O)[C@H](Cc2ccc(OCC(=O)O)cc2)NC(=O)[C@H](Cc2ccc(O)cc2)NC(=O)[C@H](CC(N)=O)NC(=O)[C@H](Cc2cn(CC(=O)O)c3ccccc23)NC(=O)[C@H](C(C)C)NC(=O)[C@H](Cc2cccc(Cl)c2)N(C)C(=O)[C@H](C(C)C)NC(=O)[C@H](C)NC(=O)CSC[C@@H](C(=O)NCCOCCOCCOCCOCCC(N)=O)NC(=O)[C@H](Cc2ccc(O)cc2)N(C)C(=O)[C@H](Cc2ccncc2)NC(=O)[C@H](CCCCN2CCOCC2)NC(=O)[C@H](CCC(N)=O)NC(=O)[C@H]([C@@H](C)CC)NC1=O [compound 135] | 1 to 100 |  |
| CC[C@H](C)[C@@H]1NC(=O)[C@H](Cc2ccc(OC)cc2)NC(=O)[C@H](Cc2ccc(O)cc2)NC(=O)[C@H](CC(N)=O)NC(=O)[C@H](Cc2c[nH]c3ccccc23)NC(=O)[C@H](C(C)C)NC(=O)[C@H](Cc2cccc(Cl)c2)N(C)C(=O)[C@H](C(C)C)NC(=O)[C@H](C)NC(=O)CSC[C@@H](C(=O)NCC(=O)N[C@@H](CCCCN=[N+]=[N-])C(N)=O)NC(=O)[C@H](Cc2ccc(O)cc2)N(C)C(=O)[C@H](Cc2ccc(O)cc2)NC(=O)[C@H](CCCNC(=N)N)NC(=O)[C@H](CCCCN)NC(=O)[C@H]([C@@H](C)CC)NC1=O [894_3165] |  | Kd [2]: 1 to 100 nM |
| CC[C@H](C)[C@@H]1NC(=O)[C@H](Cc2ccc(OCC(=O)O)cc2)NC(=O)[C@H](Cc2ccc(O)cc2)NC(=O)[C@H](CC(N)=O)NC(=O)[C@H](Cc2c[nH]c3ncccc23)NC(=O)[C@H](C(C)C)NC(=O)[C@H](Cc2cccc(Cl)c2)N(C)C(=O)[C@H](C(C)C)NC(=O)[C@H](C)NC(=O)CSC[C@@H](C(=O)NCCOCCOCCOCCOCCC(N)=O)NC(=O)[C@H](Cc2ccc(O)cc2)N(C)C(=O)[C@H](Cc2cccc(C(=O)O)c2)NC(=O)[C@H](CCCNC(=N)N)NC(=O)[C@H](CCC(=O)NCCOCCOCCOCCOCCOCCOCCOCCOC)NC(=O)[C@H]([C@@H](C)CC)NC1=O [compound 230] |  | Kd (peptide with linker, surface plasmon resonance, read-out: SPR (KD class for binding to hTfR)): 1 to 100 nM |
| CC[C@H](C)[C@@H]1NC(=O)[C@H](Cc2ccc(OC)cc2)NC(=O)[C@H](Cc2ccc(N)nc2)NC(=O)[C@H](CC(N)=O)NC(=O)[C@H](Cc2c[nH]c3ccccc23)NC(=O)[C@H](C(C)C)NC(=O)[C@H](Cc2cccc(Cl)c2)N(C)C(=O)[C@H](C(C)C)NC(=O)[C@H](C)NC(=O)CSC[C@@H](C(=O)NCCOCCOCCOCCOCCC(N)=O)NC(=O)[C@H](Cc2ccc(O)cc2)N(C)C(=O)[C@H](Cc2cccc(C(=O)O)c2)NC(=O)[C@H](CCCNC(=N)N)NC(=O)[C@H](CCCNC(=N)N)NC(=O)[C@H]([C@@H](C)CC)NC1=O [894_0359] ({CH2CO}-AV[NMePhe(3-Cl)]VWN[3Pal(6-NH2)]Y(Me)IIRR[Phe(3-COOH)][NMeY]C[PEG4]-NH2; thioether N-15) |  | Kd [2]: 1 to 100 nM |
| CC[C@H](C)[C@@H]1NC(=O)[C@H](Cc2ccc(OCC(=O)O)cc2)NC(=O)[C@H](Cc2ccc(O)cc2)NC(=O)[C@H](CC(N)=O)NC(=O)[C@H](Cc2cn(CC(=O)O)c3ccccc23)NC(=O)[C@H](C(C)C)NC(=O)[C@H](Cc2ccccc2)N(C)C(=O)[C@H](C(C)C)NC(=O)[C@H](C)NC(=O)CSC[C@@H](C(=O)NCC(=O)N[C@H](CCC(=O)O)C(=O)N[C@H](CCC(=O)O)C(=O)N[C@H](CCC(=O)O)C(=O)N[C@H](CO)C(=O)N[C@H](CO)C(=O)N[C@@H](CCCCN=[N+]=[N-])C(N)=O)NC(=O)[C@H](Cc2ccc(O)cc2)N(C)C(=O)[C@H](Cc2ccc(O)cc2)NC(=O)[C@H](CCCNC(=N)N)NC(=O)[C@H](CCCNC(=N)N)NC(=O)[C@H]([C@@H](C)CC)NC1=O [compound 42] | 1 to 100 |  |
| CC[C@H](C)[C@@H]1NC(=O)[C@H](Cc2ccc(OCC(=O)O)cc2)NC(=O)[C@H](Cc2ccc(O)cc2)NC(=O)[C@H](CC(N)=O)NC(=O)[C@H](Cc2c[nH]c3ncccc23)NC(=O)[C@H](C(C)C)NC(=O)[C@H](Cc2cccc(Cl)c2)N(C)C(=O)[C@H](C(C)C)NC(=O)[C@H](C)NC(=O)CSC[C@@H](C(=O)NCCOCCOCCOCCOCCC(N)=O)NC(=O)[C@H](Cc2ccc(O)cc2)N(C)C(=O)[C@H](Cc2ccccc2)NC(=O)[C@H](CCCNC(=N)N)NC(=O)[C@H](CCC(=O)NCCOCCOCCOCCOC)NC(=O)[C@H]([C@@H](C)CC)NC1=O [compound 133] | 1 to 100 |  |
| CC[C@H](C)[C@@H]1NC(=O)[C@H](Cc2ccc(OCC(=O)O)cc2)NC(=O)[C@H](Cc2ccc(O)cc2)NC(=O)[C@H](CC(N)=O)NC(=O)[C@H](Cc2c[nH]c3ccccc23)NC(=O)[C@H](C(C)C)NC(=O)[C@H](Cc2cccc(Cl)c2)N(C)C(=O)[C@H](C(C)C)NC(=O)[C@H](C)NC(=O)CSC[C@@H](C(=O)NCCOCCOCCOCCOCCC(N)=O)NC(=O)[C@H](Cc2ccc(O)cc2)N(C)C(=O)[C@H](Cc2cccc(C(=O)NCCOCCOCCOCCOC)c2)NC(=O)[C@H](CCCNC(=N)N)NC(=O)[C@H](CCC(=O)NCCOCCOCCOCCOC)NC(=O)[C@H]([C@@H](C)CC)NC1=O [compound 126] | 1 to 100 |  |
| CC[C@H](C)[C@@H]1NC(=O)[C@H](Cc2ccc(OCC(=O)O)cc2)NC(=O)[C@H](Cc2ccc(O)cc2)NC(=O)[C@H](CC(N)=O)NC(=O)[C@H](Cc2cn(CC(=O)O)c3ccccc23)NC(=O)[C@H](C(C)C)NC(=O)[C@H](Cc2cccc(Cl)c2)N(C)C(=O)[C@H](C(C)C)NC(=O)[C@H](C)NC(=O)CSC[C@@H](C(=O)NCCOCCOCCOCCOCCC(N)=O)NC(=O)[C@H](Cc2ccc(O)cc2)N(C)C(=O)[C@H](Cc2cccc(C(=O)O)c2)NC(=O)[C@H](CCCNC(=N)N)NC(=O)[C@H](CCCNC(=N)N)NC(=O)[C@H]([C@@H](C)CC)NC1=O [compound 75] | 1 to 100 |  |
